Results on one molecule are retold here after patent US7063959B1, “Compositions of the SOC/CRAC calcium channel protein family” (priority 1998, dated 2006).

The subject of this assay is SOC/CRAC calcium channel. As to the kind of experiment: Pharmacologic behavior of SOC/CRAC: calcium influx elicited by store depletion (fura-2) in SOC/CRAC-expressing cells. In kind it is cell-based. As to conditions: SOC/CRAC expressed in RBL-2H3 mast cells by recombinant vaccinia virus; stores depleted with thapsigargin; cells pre-incubated with reagent; effect substantially the same as on endogenous thapsigargin-dependent calcium influx.

For `CCCCCCCCCCCCC/C=C/[C@@H](O)[C@@H](N)CO` [sphingosine, Sphingosine], the SOC/CRAC-enhanced calcium influx result is recorded as “inhibited”.
